A word on the IC50: it is the concentration that gives 50% inhibition. Higher therefore signals weaker potency in that assay.

Experimental findings from US20230227484A1, “PYRIMIDINE COMPOUND AS AXL INHIBITOR” (NANJING CHIA TAI TIANQING PHARMACEUTICAL CO., LTD., priority 2020, published 2023) are described below.

Each structure is given as a SMILES string.

The target of experiment [1] is T1, AXL kinase (Homo sapiens, UniProt P30530).
T1 construct: purchased Carna 08-107
T1 sequence (P30530 473-894 limits assumed): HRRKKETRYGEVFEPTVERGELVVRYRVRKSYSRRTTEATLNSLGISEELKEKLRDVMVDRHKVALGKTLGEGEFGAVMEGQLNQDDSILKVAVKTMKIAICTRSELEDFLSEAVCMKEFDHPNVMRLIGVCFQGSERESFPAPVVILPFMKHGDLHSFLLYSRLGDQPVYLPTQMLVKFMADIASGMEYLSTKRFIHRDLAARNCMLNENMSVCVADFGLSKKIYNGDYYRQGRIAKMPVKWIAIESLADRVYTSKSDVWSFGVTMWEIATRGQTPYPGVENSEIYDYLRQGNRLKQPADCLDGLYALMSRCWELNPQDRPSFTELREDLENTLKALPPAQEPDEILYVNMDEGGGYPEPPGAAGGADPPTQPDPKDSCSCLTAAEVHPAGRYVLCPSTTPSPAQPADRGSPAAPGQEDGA
As to the kind of experiment: Inhibitory activity of compound against AXL kinase (HTRF KinEASE). Format: biochemical. As to conditions: AXL enzyme (Carna, 08-107), ATP 15 μM; "<" means below detection limit of the test. How it is done: a) AXL enzyme (Carna, 08-107) configuration and addition: a 1×enzyme buffer (200 μL of Enzymatic buffer kinase 5×, 10 μL of 500 mM MgCl2, 10 μL of 100 mM DTT and 6.26 μL of 2500 nM SEB are added with […] of H2O, and prepared into 1 ml of 1× enzyme buffer) is used. AXL enzyme is diluted from 33.33 ng/uL to 0.027 ng/μL (1.67×, final conc.=0.016 ng/uL), a BioTek (MultiFlo FX) automatic liquid dispenser is used, and 6 μL of enzyme solution having a 1.67-fold final concentration is added respectively to compound wells and positive control wells; and 6 μL of 1×Enzymatic buffer is added to negative control wells.
b) Compound preparation and addition: the compounds and positive drugs prepared in the examples are diluted from 10 mM to 100 μM by DMSO, and titrated with a compound titrator (Tecan, D300e). The titrated solution is automatically sprayed by the titrator to each well to reach a required concentration, wherein the first concentration is 1 μM, and after ½ log dilution, a total of 8 concentrations are obtained. The resulting mixture is centrifuged at 2500 rpm for 30 s and incubated at room temperature for 15 min.
c) Preparation and addition of ATP and substrate: ATP (Sigma, A7699) is diluted with 1× enzyme buffer from 10 mM to 75 μM (5×), and the final concentration is 15 μM; the substrate TK Substrate 3-biotin (Cisbio, 61TK0BLC) is diluted with 1× enzyme buffer from 500 μM to 5 μM (5×), andthe final concentration is […]; ATP and the substrate are mixed in equal volume to obtain a mixed solution; the mixed solution is added to each well at 4 μL by using a BioTek automatic dispenser; centrifuged at 2500 rpm for 30 s, and reacted at 25° C. for 45 min.
d) Pirparation and addition of detection reagent: Streptavidin-XL665 (Cisbio, 610SAXLG) is diluted with HTRF KinEASE detection buffer (cisbio) from 16.67 μM to 250 nM (4×), and the final concentration is 62.5 nM; TK Antibody-Cryptate (Cisbio) is diluted with HTRF KinEASE detection buffer (cisbio) from 100× to 5×, and the final concentration is 1×; XL665 and Antibody are mixed in equal volume; the mixed solution is added to each well at 10 μL by using the BioTek automatic dispenser, centrifuged at 2500 rpm for 30 s, and reacted at 25° C. for 1 h. After the reaction is completed, the resulting product is detected by a multi-function plate reader HTR1p
GraphPad Prism 5 software log (inhibitor) vs. response-Variable slope is used to fit a dose-response curve to obtain the IC50 value of the compound to the inhibition of AXL kinase.
The calculation formula of the inhibition rate is as follows: […]
On the technique in general: In TR-FRET formats the signal depends on donor and acceptor labels being close together.

Experiment [2] relates to MV-4-11 (human myeloid monocytic leukemia cell line). As to the kind of experiment: Proliferation inhibition activity of compounds to MV-4-11 cells (CellTiter-Glo). The settings on record: MV4-11 cells, 72 h dosing. Format: cell-based. How it is done:
MV-4-11 (human myeloid monocytic leukemia cell line, culture medium: JIMDM+10% fetal bovine serum) is purchased from Cobioer Biosciences Co., Ltd and cultured in a 5% C02 incubator at 37° C. The cells in a logarithmic growth phase are plated in a 96-well plate at cell densities of 8000 cells/well, 6000 cells/well, 2000 cells/well, 2000 cells/well and 3000 cells/well, and a blank control group is set at the same time.
A compound to be tested and the positive drug are dissolved in dimethyl sulfoxide to prepare a 10 mM stock solution, which is then stored in −80° C. refrigerator for long-time storage. After the cells are plated for 24 h, the 10 mM compound stock solution is diluted with dimethyl sulfoxide to obtain a working solution having a 200-fold concentration (the highest concentration is 200 or 2000 μM, a 3-fold gradient, a total of 10 concentrations), and 3 μL of the working solution of each concentration is added to 197 μL of complete medium, and diluted into a working solution of 3-fold concentration. 50 μL of the working solution is then taken and added to a 100 μL cell culture medium (a final concentration of dimethyl sulfoxide is 0.5%, v/v), and two complex holes are set for each concentration. After 72 h of dosing treatment, 50 μl of CellTiter-Glo® (purchased from Promega) is added to each well. Fluorescence signals are measured on Envision (PerkinElmer) according to an operating procedure of the specification. GraphPad Prism 5 software log(inhibitor) vs. response-Variable slope is used to fit a dose-response curve, so as to obtain the IC50 value of the compound to the inhibition of cell-proliferation. The calculation formulation of the inhibition rate is as follows: […]
wherein: signal value of subject: a mean fluorescence signal of cell+medium+compound group; signal value of blank group: a mean fluorescence signal of medium group (containing 0.5% DMSO); signal value of negative control group: a mean fluorescence signal of cell+medium group (containing 0.5% DMSO).
(Cellular ATP, detected with luciferase, serves as a proxy for viable cell number.)

`NC(=O)c1ccccc1Nc1nc(Nc2ccc3c(c2)CC[C@@H](N2CCCC2)CC3)ncc1Cl` [Example 13, (S)-2-((5-chloro-2-((7-(pyrrolidin-1-yl)-6,7,8,9-tetrahydro-5H-benzo[7]annulen-2-yl)amino)pyrimidin-4-yl)amino)benzamide]: the half-maximal inhibitory concentration (IC50) is under 0.11 nM in experiment [1] and 0.64 nM in experiment [2].
The like results for `O=C(NC1CCOC1)c1ccccc1Nc1nc(Nc2ccc3c(c2)CC[C@@H](N2CCCC2)CC3)ncc1Cl` (stereo partly drawn) [Example 39] were, in that order, 2.59 nM and 6.4 nM.
The like results for `CN(C)S(=O)(=O)c1ccccc1Nc1nc(Nc2ccc3c(c2)CC[C@@H](N2CCCC2)CC3)ncc1Cl` [Example 1, (S)-2-((5-chloro-2-((7-(pyrrolidin-1-yl)-6,7,8,9-tetrahydro-5H-benzo[7]annulen-2-yl)amino)pyrimidin-4-yl)amino)-N,N-dimethyl benzenesulfonamide] were, in that order, 0.33 nM and 6.83 nM.
The like results for `CNC(=O)c1cc(F)ccc1Nc1nc(Nc2ccc3c(c2)CCN(C2CCOCC2)CC3)ncc1Cl` [Example 46, 2-((5-chloro-2-((3-(tetrahydro-2H-pyran-4-yl)-2,3,4,5-tetrahydro-1H-benzo[d]aza-7-yl)amino)pyrimidin-4-yl)amino)-5-fluoro-N-methylbenzamide] were, in that order, 0.8 nM and 1.63 nM.
Turning to `O=S(=O)(Nc1ccccc1Nc1nc(Nc2ccc3c(c2)CC[C@@H](N2CCCC2)CC3)ncc1Cl)C1CC1` [Example 41, (S)—N-(2-((5-chloro-2-((7-(pyrrolidin-1-yl)-6,7,8,9-tetrahydro-5H-benzo[7]annulen-2-yl)amino)pyrimidin-4-yl)amino)phenyl)cyclopropanesulfonamide], the IC50 in experiment [1] came to 2.08 nM; in experiment [2], 4.28 nM.
The like results for `CS(=O)(=O)Nc1ccccc1Nc1nc(Nc2ccc3c(c2)CC[C@@H](N2CCCC2)CC3)ncc1Cl` [Example 30, (S)—N-(2-((5-chloro-2-((7-(pyrrolidin-1-yl)-6,7,8,9-tetrahydro-5H-benzo[7]annulen-2-yl)amino)pyrimidin-4-yl)amino)phenyl)methanesulfonamide] were, in that order, 1.05 nM and 2.64 nM.
The like results for `COc1c(F)ccc(Nc2nc(Nc3ccc4c(c3)CC[C@@H](N3CCCC3)CC4)ncc2Cl)c1P(C)(C)=O` [Example 134, (S)-(6-((5-chloro-2-((7-(pyrrolidin-1-yl)-6,7,8,9-tetrahydro-5H-benzo[7]annulen-2-yl)amino)pyrimidin-4-yl)amino)-3-fluoro-2-methoxyphenyl)dimethyl phosphine oxide] were, in that order, 0.85 nM and 3.63 nM.
Take `CNC(=O)c1ccccc1Nc1nc(Nc2ccc3c(c2)CCN(C2CCCC2)CC3)ncc1Cl` [Example 32, 2-((5-chloro-2-((3-cyclopentyl-2,3,4,5-tetrahydro-1H-benzo(d)aza-7-yl)amino)pyrimidine-4-yl)amino)-N-methylbenzamide]: the IC50 was determined as 0.75 nM in experiment [1] and 1.98 nM in experiment [2].
The like results for `CP(C)(=O)c1cc(CO)ccc1Nc1nc(Nc2ccc3c(c2)CC[C@@H](N2CCCC2)CC3)ncc1Cl` [Example 141, (S)-(2-((5-chloro-2-((7-(pyrrolidin-1-yl)-6,7,8,9-tetrahydro-5H-benzo[7]annulen-2-yl)amino)pyrimidin-4-yl)amino)-5-(hydroxymethyl)phenyl)dimethyl phosphine oxide] were, in that order, 2.43 nM and 13.9 nM.
In experiment [2], `CP(C)(=O)c1cc(OC(F)F)ccc1Nc1nc(Nc2ccc3c(c2)CC[C@@H](N2CCCC2)CC3)ncc1Cl` [Example 75, (S)-(2-((5-chloro-2-((7-(pyrrolidin-1-yl)-6,7,8,9-tetrahydro-5H-benzo[7]annulen-2-yl)amino)pyrimidin-4-yl)amino)-5-(difluoromethoxyl)phenyl)dimethyl phosphine oxide] showed a half-maximal inhibitory concentration (IC50) of 2.93 nM.
On the same count and under the same terms, for `Cc1ccc(Nc2nc(Nc3ccc4c(c3)CC[C@@H](N3CCCC3)CC4)ncc2Cl)c(P(C)(C)=O)n1` [Example 81, (S)-(3-((5-chloro-2-((7-(pyrrolidin-1-yl)-6,7,8,9-tetrahydro-5H-benzo[7]annulen-2-yl)amino)pyrimidin-4-yl)amino)-6-methylpyridin-2-yl)dimethyl phosphine oxide] the value was 3.13 nM.
Still for that read-out and setting: next, `CNC(=O)c1ccc(Nc2nc(Nc3ccc4c(c3)CC[C@@H](N3CCCC3)CC4)ncc2Cl)c(P(C)(C)=O)c1` [Example 77, (S)-4-((5-chloro-2-((7-(pyrrolidin-1-yl)-6,7,8,9-tetrahydro-5H-benzo[7]annulen-2-yl)amino)pyrimidin-4-yl)amino)-3-(dimethylphosphoryl)-N-methylbenzamide]: 10.1 nM; `CP(C)(=O)c1cc(-n2cnnn2)ccc1Nc1nc(Nc2ccc3c(c2)CC[C@@H](N2CCCC2)CC3)ncc1Cl` [Example 109, (S)-(2-((5-chloro-2-((7-(pyrrolidin-1-yl)-6,7,8,9-tetrahydro-5H-benzo[7]annulen-2-yl)amino)pyrimidin-4-yl)amino)-5-(1H-tetrazol-1-yl)phenyl)dimethyl phosphine oxide]: 8.56 nM; `CP(C)(=O)c1cc(OC(F)(F)F)ccc1Nc1nc(Nc2ccc3c(c2)CC[C@@H](N2CCCC2)CC3)ncc1Cl` [Example 76, (S)-(2-((5-chloro-2-((7-(pyrrolidin-1-yl)-6,7,8,9-tetrahydro-5H-benzo[7]annulen-2-yl)amino)pyrimidin-4-yl)amino)-5-(trifluoromethoxyl)phenyl)dimethyl phosphine oxide]: 7.98 nM.
`[2H]C([2H])([2H])P(=O)(c1cc(F)ccc1Nc1nc(Nc2ccc3c(c2)CC[C@@H](N2CCCC2)CC3)ncc1Cl)C([2H])([2H])[2H]` [Example 57, (S)-(2-((5-chloro-2-((7-(pyrrolidin-1-yl)-6,7,8,9-tetrahydro-5H-benzo[7]annulen-2-yl)amino)pyrimidin-4-yl)amino)-5-fluorophenyl)bis(methyl-d3) phosphine oxide]: in experiment [1], half-maximal inhibition (IC50) was put at 6.27 nM.
